Experimental data: patent US12605401B2, “Polymers, compositions and methods for treating hyperuricemia” (WATERSTONE PHARMACEUTICALS (WUHAN) CO., LTD., priority 2021, dated 2026)

System: chronic hyperuricemia model rats
Experiment: Chronic hyperuricemia model, adenine + ethambutol, 21 days; serum UA, CREA, UREA
Assay type: in vivo
Method: 48 rats were randomly divided into 6 groups with 8 rats in each group. The groups were as follows: Blank Group (Vehicle, ig), Model Group (Vehicle, ig), Positive control group (Allopurinol, 10 mg/kg, ig), Compound 1 group (Sevelamer carbonate, 250 mg/kg, ig), Compound 2 low-dose group (TAA polymer, 50 mg/kg, ig), Compound 2 high-dose group (TAA polymer, 250 mg/kg, ig). Except for blank group, rats in other groups were modeled according to the chronic modeling method. The modeling method was as follows: rats were given Adenine (100 mg/kg)+Ethambutol (250 mg/kg) by gavage, once a day, for 21 days. Animals in blank group and model group were given equal volume of normal saline by gavage. Animals in positive control group were given positive 10 mg/kg Alloalcohol, once in the first week, once in the second week, once a day for 3 days before sampling in the third week. Animals in other groups were given intragastric administration once a day for 14 consecutive days from the 8th day of modeling. Blood samples were taken at Day 21 after modeling, and serum samples were separated and stored at −80° C. for biochemical detection.
After 21 days of modeling (14 days of drug treatment), blood samples were taken and serum separation was performed to detect three renal functions (UA, CREA and UREA) (See Table 1 and FIGS. 2a, 2b and 2c). Compound 1 is Sevelamer carbonate and Compound 2 is a graft polytriallylamine with 50% molar percentage of the moiety to the tertiary amine in polytriallylamine.

Oc1ncnc2[nH]ncc12 [Allopurinol]
CREA, effect in words (10 mg/kg ig, day 21): significantly reduced | UA, effect in words (10 mg/kg ig, day 21): significantly reduced | UREA, effect in words (10 mg/kg ig, day 21): significantly reduced | CREA and UREA, conclusion in words (protective effect on the kidney) (conclusion over the dose groups): can decrease
